Here are results for one compound from patent publication US20160303231A1, “TREATING CANCER WITH A COMBINATION OF A PD-1 ANTAGONIST AND A VEGFR INHIBITOR” (GLAXOSMITHKLINE LLC, priority 2013, published 2016).

Where a name gives a salt, the structure may show the parent alone.

The assay has as its system RENCA cells. In words: Anti-tumor response of tumor-bearing mice (RENCA tumor model). In kind it is in vivo, BALB/c mice. The note with it: for Tumor Size (D17): Mean ± SEM, day 17. How it is done:
A cohort of 8 weeks old female BALB/c mice were implanted with 1×10^6 RENCA cells. […] The Vehicle control was 0.5% hydroxypropylemethylcellulose, 0.1% Tween-80 in distilled water, pH adjusted to 1.3-1.5 with 0.1N hydrochloric acid. The Isotype control was mouse IgG1 specific for an adenoviral hexon protein (clone TC31.27F11).
A one-way ANOVA test was performed to compare tumor volume at the end of study among groups.

Setting [1] is: G4: Isotype 5 mpk + Pazopanib 100 mpk qd.
Setting [2] is: G6: Isotype 1 mpk + Pazopanib 100 mpk qd.
Setting [3] is: G8: Isotype 5 mpk + Pazopanib 100 mpk bid.

Consider `Cc1ccc(Nc2nccc(N(C)c3ccc4c(C)n(C)nc4c3)n2)cc1S(N)(=O)=O` [Pazopanib, 5-[[4-[(2,3-dimethyl-2H-indazol-6-yl)methylamino]-2-pyrimidinyl]amino]-2-methylbenzenesulfonamide monohydrochloride], for which, under setting [1], the T/C stood at 61% and the “TGI (tumor growth inhibition)” value is recorded as 39%. For the same compound, under setting [2], the T/C is on record as 70%, the “TGI (tumor growth inhibition)” value stood at 30% and the “Tumor Size (D17)” value was 1,751 ± 214 mm^3. Under setting [3], the T/C is listed as 48%, the “TGI (tumor growth inhibition)” value is 52% and the “Tumor Size (D17)” value is recorded as 1,240 ± 97 mm^3.
